# Source: patent US5004756A, “Anti-cancer activity potentiator” (priority 1988, dated 1991)
# Key:
# [1] = tested on: clinically isolated human cancer cells (lung adenocarcinoma, lung squamous cell carcinoma, osteosarcoma, ovarian carcinoma); assay: Anti-tumor activity on clinically isolated human cancer cells, morphological changes (A-I Part 2); assay type: cell-based
# V79/S [2] = assay: Anti-cancer activity potentiating action, colony formation, V79/S parent cells (A-III); assay type: cell-based, Chinese hamster; conditions: V79/S; for IC50: Cricetulus griseus
# Procedure: (§1) The anti-cancer activity potentiating action of the malate of formula (I) was examined using Chinese hamster cells (sensitive cell line V79/S and ADM-resistant cell line V79/ADM), human hepatoma cells (sensitive cell line PLC/S and colchicin-resistant cell line PLC/Col) and mouse leukemia cells (sensitive cell line L5178Y/S) and aclarubicin-resistant cell line L5178Y/ACR).
# (§2) Of these tumor cells, the sensitive cells (400 cells) and the resistant cells (600 cells) were each incubated in 10 ml of Eagle's MEM medium containing 10% bovine serum for 24 hours, and then each of the test drugs indicated in Table 6 was added. Thereafter, the incubation was carried out for 9 days. The concentration (IC50 : micrograms/ml) of the test drug required to inhibit 50% of the colony formation (proliferation) of the tumor cells was calculated.
# (§3) (A) Chinese hamster V79 cells
# (§4) As anti-cancer agents, there were used adriamycin (ADM), aclarubicin (ACR), actinomycin D (ACD), 5-fluorouracil (5-FU), cytarabin (Ara-C), cisplatin (CDDP), methotrexate (MTX), mitomycin C (MMC), nimustine (ACNU), mitoxantrone, etoposide ([…]), vincristine (VCR), bleomycin (BLM) and peplomycin (PEP). For the sensitive cells, the anti-cancer agents were used in combination with 10 micrograms/ml of the malate of formula (I), and for the resistant cells, the anti-cancer agents were used in combination with the malate of formula (I) 3 micrograms/ml, 5 micrograms/ml, and 10 micrograms/ ml.
# V79/ADM [3] = assay: Anti-cancer activity potentiating action, colony formation, V79/ADM resistant cells (A-III); assay type: cell-based, Chinese hamster; conditions: V79/ADM; for IC50: Cricetulus griseus
# Procedure: as §1, §2, §3, §4
# V79/S [4] = assay: Colony formation (proliferation) inhibition, sensitive Chinese hamster cells (A-I Part 1); assay type: cell-based; conditions: Cricetulus griseus, 216 h
# Procedure: (§5) Sensitive cell line V79/S and ADM-resistant cell line V79/ADM of the Chinese hamster were used, and sensitive cell line PLC/S and cholchicin-resistant cell line PLC/Col, as human hepatoma cells.
# (§6) The sensitive cell lines (400 cells) or the resistant cell lines (600 cells) were each incubated for 24 hours in 10 ml of Eagle's MEM medium containing 10% bovine serum. Each of the drugs indicated in Table 1 below was dissolved in ethanol, and 50 microliters of the resulting solution was added to the medium. The incubation was further carried out for 9 days. The concentration of the drug which inhibits 50% of the colony formation (proliferation) of the tumor cells was calculated.
# (§7) V79/S and V79/ADM were tested by using all of the drugs described above, but PLC/S and PLC/Col were tested by using only the malate of formula (I), adriamycin and peplomycin.
# (§8) The concentrations (micrograms/ml) required to inhibit 50% of the proliferation of the tumor cells, expressed by IC50, are shown in Table 1.
# V79/ADM [5] = assay: Colony formation (proliferation) inhibition, ADM-resistant Chinese hamster cells (A-I Part 1); assay type: cell-based; conditions: Cricetulus griseus, 216 h
# Procedure: as §5, §6, §7, §8
# [6] = alone, Table 6, read-out: IC50, anti-cancer agent alone
# [7] = with compound (I) 10 μg/ml, read-out: IC50 in combination with compound (I)
# [8] = with compound (I) 5 μg/ml, read-out: IC50 in combination with compound (I)
# [9] = with compound (I) 3 μg/ml, read-out: IC50 in combination with compound (I)
compound,measurement,setting,value
"O=c1[nH]cc(F)c(=O)[nH]1 [Example 5-FU, 5-fluorouracil]",Efficacy ratio (rated significant by Fisher's test),[1]; 10 μg/ml,1/8
same,IC50,V79/S [2]; [6],9.7 µM
same,IC50,V79/S [2]; [7],2.1 µM
same,Potentiation activity,V79/S [2]; with compound (I) 10 μg/ml,4.6 times
same,IC50,V79/ADM [3]; [6],7.2 µM
same,IC50,V79/ADM [3]; [8],0.62 µM
same,Potentiation activity,V79/ADM [3]; with compound (I) 5 μg/ml,11.6 times
"N[C@@H](Cc1ccc(N(CCCl)CCCl)cc1)C(=O)O [MPL, melphalan]",Efficacy ratio (rated significant by Fisher's test),[1]; 0.5 μg/ml,1/8
"CN(Cc1cnc2nc(N)nc(N)c2n1)c1ccc(C(=O)N[C@@H](CCC(=O)O)C(=O)O)cc1 [MTX, methotrexate]",IC50,V79/S [4],0.017 µg/mL
same,IC50,V79/ADM [5],0.0078 µg/mL
same,Efficacy ratio (rated significant by Fisher's test),[1]; 3.0 μg/ml,1/8
same,IC50,V79/S [2]; [6],0.014 µg/mL
same,IC50,V79/S [2]; [7],0.017 µg/mL
same,Potentiation activity,V79/S [2]; with compound (I) 10 μg/ml,0.8 times
same,IC50,V79/ADM [3]; [6],0.0078 µg/mL
same,IC50,V79/ADM [3]; [8],< 0.0025 µg/mL
same,Potentiation activity,V79/ADM [3]; with compound (I) 5 μg/ml,> 3.12 times
"O=C1c2c(O)ccc(O)c2C(=O)c2c(NCCNCCO)ccc(NCCNCCO)c21 [Mitoxantrone, mitoxantrone]",IC50,"V79/S [4]; V79/S, 9 days, Table 1, read-out: IC50",0.019 µg/mL
same,IC50,"V79/ADM [5]; V79/ADM, 9 days, Table 1, read-out: IC50",0.36 µg/mL
same,IC50,V79/S [2]; [6],0.019 µg/mL
same,IC50,V79/S [2]; [7],0.0081 µg/mL
same,Potentiation activity,V79/S [2]; with compound (I) 10 μg/ml,2.3 times
same,IC50,V79/ADM [3]; [6],0.36 µg/mL
same,IC50,V79/ADM [3]; [9],0.074 µg/mL
same,Potentiation activity,V79/ADM [3]; with compound (I) 3 μg/ml,4.9 times
"CC[C@]1(O)C[C@H]2CN(CCc3c([nH]c4ccccc34)[C@@](C(=O)OC)(c3cc4c(cc3OC)N(C=O)[C@H]3[C@@](O)(C(=O)OC)[C@H](OC(C)=O)[C@]5(CC)C=CCN6CC[C@]43[C@@H]65)C2)C1 [VCR, vincristine]",Efficacy ratio (rated significant by Fisher's test),[1]; 0.1 μg/ml,2/8
same,IC50,V79/S [2]; [6],0.0271 µg/mL
same,IC50,V79/S [2]; [7],0.00325 µg/mL
same,Potentiation activity,V79/S [2]; with compound (I) 10 μg/ml,8.3 times
same,IC50,V79/ADM [3]; [6],0.73 µg/mL
same,IC50,V79/ADM [3]; [9],0.0351 µg/mL
same,Potentiation activity,V79/ADM [3]; with compound (I) 3 μg/ml,20.8 times
"CC[C@]1(O)C[C@@H]2CN(CCc3c([nH]c4ccccc34)[C@@](C(=O)OC)(c3cc4c(cc3OC)N(C)[C@H]3[C@@](O)(C(N)=O)[C@H](O)[C@]5(CC)C=CCN6CC[C@]43[C@@H]65)C2)C1 [VDS, vindesine]",Efficacy ratio (rated significant by Fisher's test),[1]; 0.5 μg/ml,0/8
"CC[C@]1(O)C[C@@H]2CN(CCc3c([nH]c4ccccc34)[C@@](C(=O)OC)(c3cc4c(cc3OC)N(C)[C@H]3[C@@](O)(C(=O)OC)[C@H](OC(C)=O)[C@]5(CC)C=CCN6CC[C@]43[C@@H]65)C2)C1 [VLB, vinblastine]",Efficacy ratio (rated significant by Fisher's test),[1]; 0.1 μg/ml,3/8
bleomycin [BLM],Efficacy ratio (rated significant by Fisher's test),[1]; 1.0 μg/ml,2/8
same,"IC50, anti-cancer agent alone","V79/S [2]; alone, Table 6",2.1 µg/mL
same,IC50 in combination with compound (I),V79/S [2]; with compound (I) 10 μg/ml,0.01 µg/mL
same,Potentiation activity,V79/S [2]; with compound (I) 10 μg/ml,202 times
same,"IC50, anti-cancer agent alone","V79/ADM [3]; alone, Table 6",0.56 µg/mL
same,IC50 in combination with compound (I),V79/ADM [3]; with compound (I) 3 μg/ml,0.0385 µg/mL
same,Potentiation activity,V79/ADM [3]; with compound (I) 3 μg/ml,14.5 times
